From patent US20240343726A1, “PYRROLOPYRIDINE-3- AND 4-CARBOXAMIDE COMPOSITIONS AND METHODS FOR CELLULAR PROLIFERATION” (The Rockefeller University, priority 2021, published 2024)

target: LATS1 kinase (Homo sapiens (Human), UniProt O95835); test: LATS1 Biochemical HTRF Assay; settings: 2 mM ATP; read-out: LATS1_HTRF_2 mM ATP IC50
Procedure: LATS1 Biochemical HTRF Assay
MgCl2 and [1 mM] DTT. 1× Enzymatic buffer diluted from 5× Enzymatic buffer*. Add 0.5 μL of 20× compound in 100% DMSO. […] MgCl2, [1 mM] DTIT and [5 mg/mL] BSA. 5×ERR prepared from 5× Enzymatic buffer with [25 mg/mL] BSA. Mix plate on plate shaker set at 1,350 rpm for 30 seconds, then centrifuge plate at 1,000 rpm for 1 minute. Incubate for 30 minutes at 25° C. on plate shaker set to 500 rpm. […] STK Substrate 1-biotin* then add 2 μL [10 mM] ATP. Mix plate on plate shaker set at 1,350 rpm for 30 seconds, then centrifuge plate at 1,000 rpm for 1 minute. Incubate for 40 minutes at 25° C. on plate shaker set to 500 rpm. […] Streptavidin-XL665 with 1×STK Antibody-Cryptate*. Mix plate on plate shaker set at 1,350 rpm for 30 seconds, then centrifuge plate at 1,000 rpm for 1 minute. Incubate for 60 minutes at 25° C. on plate shaker set to 500 rpm, covered from light.
*(Included in Cisbio KinEASE-STK Si HTRF Kit: 62ST1PEC)

Sequence of LATS1 kinase (O95835 589-1130): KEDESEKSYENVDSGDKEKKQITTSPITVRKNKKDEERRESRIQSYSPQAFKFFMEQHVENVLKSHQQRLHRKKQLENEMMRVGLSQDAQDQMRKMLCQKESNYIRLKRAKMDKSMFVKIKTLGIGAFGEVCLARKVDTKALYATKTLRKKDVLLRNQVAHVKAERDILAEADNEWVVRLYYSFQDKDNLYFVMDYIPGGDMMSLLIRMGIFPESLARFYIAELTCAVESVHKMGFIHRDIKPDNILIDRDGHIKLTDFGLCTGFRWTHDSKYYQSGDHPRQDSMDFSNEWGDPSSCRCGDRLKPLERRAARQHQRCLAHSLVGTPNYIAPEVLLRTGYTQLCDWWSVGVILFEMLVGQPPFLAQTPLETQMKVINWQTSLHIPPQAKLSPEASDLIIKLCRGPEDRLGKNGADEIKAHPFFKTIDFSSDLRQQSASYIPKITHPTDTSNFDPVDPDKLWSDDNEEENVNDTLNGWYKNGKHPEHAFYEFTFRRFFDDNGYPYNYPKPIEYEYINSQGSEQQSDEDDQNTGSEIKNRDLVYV

Row | SMILES | IC50 [µM]
1 | O=C(/N=C1\SCCN1c1cccc(=O)[nH]1)c1c[nH]c2ncccc12 [Example 77] | 4.83
2 | O=C(/N=C1\SCCN1c1cccc(F)c1O)c1c[nH]c2ncccc12 [Example 73] | 0.0014
3 | CNC(=O)C1CS/C(=N\C(=O)c2c[nH]c3ncccc23)N1c1ccccc1 (centres unmarked) [Example 15, (Z)-2-((1H-pyrrolo[2,3-b]pyridine-3-carbonyl)imino)-N-methyl-3-phenylthiazolidine-4-carboxamide] | 0.0079
4 | O=C(/N=C1\SCC2CNCCN12)c1c[nH]c2ncccc12 (centres unmarked) [Example 22, (Z)—N-(hexahydro-3H-thiazolo[3,4-a]pyrazin-3-ylidene)-1H-pyrrolo[2,3-b]pyridine-3-carboxamide] | 2.13
5 | CN(C)Cc1cs/c(=N\C(=O)c2ccnc3[nH]ccc23)n1-c1ccccc1Cl [Example 59, (Z)—N-(3-(2-chlorophenyl)-4-((dimethylamino)methyl)thiazol-2(3H)-ylidene)-1H-pyrrolo[2,3-b]pyridine-4-carboxamide] | 0.215
6 | O=C(/N=C1\SCCN1c1ccc[nH]c1=O)c1c[nH]c2ncccc12 [Example 76] | 0.191
7 | O=C(/N=c1\sccn1C1CCCCC1)c1ccnc2[nH]ccc12 [Example 49] | 0.505
8 | O=C(/N=C1\SCCN1C1CCC(O)C1)c1c[nH]c2ncccc12 (centres unmarked) [Example 81, (Z)—N-(3-(3-hydroxycyclopentyl)thiazolidin-2-ylidene)-1H-pyrrolo[2,3-b]pyridine-3-carboxamide] | 0.05
9 | O=C(/N=C1\SCCCCN1c1ccccc1)c1c[nH]c2ncccc12 [Example 40, (Z)—N-(3-phenyl-1,3-thiazepan-2-ylidene)-1H-pyrrolo[2,3-b]pyridine-3-carboxamide] | 0.22
10 | CC(=O)N1CCC(N2CCCS/C2=N\C(=O)c2c[nH]c3ncccc23)CC1 [Example 31] | 2.75
11 | Cc1cs/c(=N\C(=O)c2ccnc3[nH]ccc23)n1CC1CCCCC1 [Example 52] | 0.012
12 | CC1(C)CS/C(=N\C(=O)c2c[nH]c3ncccc23)N(C2CCCCC2)C1 [Example 33] | 4.44
13 | O=C(/N=C1\SCC(=O)N1c1ccccc1)c1c[nH]c2ncccc12 [Example 23] | 0.224
14 | COc1ccccc1-n1ccs/c1=N\C(=O)c1ccnc2[nH]ccc12 [Example 46] | 1.77
15 | O=C(/N=C1\SCCN1c1ccc(F)cc1O)c1c[nH]c2ncccc12 [Example 72] | 0.0011
16 | CN(C)CCNC(=O)c1cs/c(=N\C(=O)c2ccnc3[nH]ccc23)n1Cc1ccccc1 [Example 57, (Z)-2-((1H-pyrrolo[2,3-b]pyridine-4-carbonyl)imino)-3-benzyl-N-(2-(dimethylamino)ethyl)-2,3-dihydrothiazole-4-carboxamide] | 0.46
17 | O=C(/N=c1\sc(CO)cn1-c1ccccc1Cl)c1ccnc2[nH]ccc12 [Example 63, (Z)—N-(3-(2-chlorophenyl)-5-(hydroxymethyl)thiazol-2(3H)-ylidene)-1H-pyrrolo[2,3-b]pyridine-4-carboxamide] | 0.85
18 | O=C(/N=c1\sccc(=O)n1-c1ccccc1)c1c[nH]c2ncccc12 [Example 38] | 0.65
19 | O=C(/N=c1\sccn1-c1ccc(CO)cc1Cl)c1ccnc2[nH]ccc12 [Example 50] | 2.06
20 | O=C(/N=C1\SCCCN1c1cccc(O)c1)c1c[nH]c2ncccc12 [Example 78] | 0.018
21 | N#Cc1cc2ncccc2n1C(=O)/N=c1\sccn1-c1ccccc1 [Example 87] | 2.14
22 | Cc1cs/c(=N\C(=O)c2ccnc3[nH]ccc23)n1C1CCCCC1 [Example 51] | 0.031
23 | O=C(/N=C1\SCCCN1c1ccccc1)c1ccnc2[nH]ccc12 [Example 29] | 1.38

Row | SMILES | IC50 [µM]
24 | O=C(/N=c1\sc(CO)cn1Cc1ccccc1)c1ccnc2[nH]ccc12 [Example 62, (Z)—N-(3-benzyl-5-(hydroxymethyl)thiazol-2(3H)-ylidene)-1H-pyrrolo[2,3-b]pyridine-4-carboxamide] | 4.04
25 | O=C(/N=c1\sccn1Cc1ccccc1)n1ccc2ncccc21 [Example 86] | 0.9
26 | O=C(/N=C1\SCCN1c1c(O)cccc1F)c1c[nH]c2ncccc12 [Example 70] | 0.0006
27 | O=C(/N=C1\SCC(CO)N1c1ccccc1Cl)c1c[nH]c2ncccc12 (centres unmarked) [Example 80] | 0.0016
28 | O=C(/N=C1\SCCN1c1c(O)cccc1Cl)c1c[nH]c2ncccc12 [Example 74, (NZ)—N-[3-(2-chloro-6-hydroxy-phenyl)thiazolidin-2-ylidene]-1H-pyrrolo[2,3-b]pyridine-3-carboxamide] | 0.0018
29 | Cc1cn(-c2ccccc2Cl)/c(=N/C(=O)c2ccnc3[nH]ccc23)s1 [Example 61] | 1.23
30 | O=C(/N=c1\sccn1-c1cccc(Cl)c1)c1ccnc2[nH]ccc12 [Example 43] | 1.67
31 | CN(C)C(=O)CN1CCCS/C1=N\C(=O)c1c[nH]c2ncccc12 [Example 37, (Z)—N-(3-(2-(Dimethylamino)-2-oxoethyl)-1,3-thiazinan-2-ylidene)-1H-pyrrolo[2,3-b]pyridine-3-carboxamide] | 1.68
32 | Cc1cs/c(=N\C(=O)c2ccnc3[nH]ccc23)n1Cc1ccccc1 [Example 53] | 0.22
33 | O=C(/N=c1\sccn1-c1ccc(Cl)cc1)c1ccnc2[nH]ccc12 [Example 44] | 0.36
34 | O=C(/N=c1\scc(CO)n1-c1ccccc1Cl)c1ccnc2[nH]ccc12 [Example 55, (Z)—N-(3-(2-chlorophenyl)-4-(hydroxymethyl)thiazol-2(3H)-ylidene)-1H-pyrrolo[2,3-b]pyridine-4-carboxamide] | 0.068
35 | O=C(/N=C1\SCC2CCCCN12)c1c[nH]c2ncccc12 (centres unmarked) [Example 21] | 3.78
36 | O=C(/N=c1\sccn1-c1ccccc1C(F)(F)F)c1ccnc2[nH]ccc12 [Example 48] | 1.23
37 | CN(C)C(=O)c1cs/c(=N\C(=O)c2ccnc3[nH]ccc23)n1-c1ccccc1Cl [Example 56] | 2.78
38 | CN(C)C(=O)CN1CCS/C1=N\C(=O)c1c[nH]c2ncccc12 [Example 18] | 0.5
39 | O=C(/N=C1\SCCCCN1Cc1ccccc1)c1c[nH]c2ncccc12 [Example 39, (Z)—N-(3-benzyl-1,3-thiazepan-2-ylidene)-1H-pyrrolo[2,3-b]pyridine-3-carboxamide] | 0.27
40 | CC(=O)NCc1cs/c(=N\C(=O)c2ccnc3[nH]ccc23)n1-c1ccccc1Cl [Example 60, (Z)—N-(4-(acetamidomethyl)-3-(2-chlorophenyl)thiazol-2(3H)-ylidene)-1H-pyrrolo[2,3-b]pyridine-4-carboxamide] | 0.33
41 | Cc1ccccc1-n1ccs/c1=N\C(=O)c1ccnc2[nH]ccc12 [Example 42] | 0.033
42 | O=C(/N=C1\SCCN1c1cc(F)ccc1O)c1c[nH]c2ncccc12 [Example 75] | 0.0015
43 | O=C(/N=C1\SCCN1C1CCCC1O)c1c[nH]c2ncccc12 (centres unmarked) [Example 79, (NZ)—N-[3-(2-hydroxycyclopentyl)thiazolidin-2-ylidene]-1H-pyrrolo[2,3-b]pyridine-3-carboxamide] | 0.221
44 | O=C(/N=c1\scc(CO)n1Cc1ccccc1)c1ccnc2[nH]ccc12 [Example 54, (Z)—N-(3-benzyl-4-(hydroxymethyl)thiazol-2(3H)-ylidene)-1H-pyrrolo[2,3-b]pyridine-4-carboxamide] | 0.18
45 | CCc1ccccc1-n1ccs/c1=N\C(=O)c1ccnc2[nH]ccc12 [Example 47] | 0.765
46 | O=C(/N=C1\SCC(CO)N1Cc1ccccc1)c1c[nH]c2ncccc12 (centres unmarked) [Example 82] | 0.017

system: phosphorylation of YAP; test: pYAP HTRF Assay (HEK 293A Cells); type: cell-based; settings: HEK293-A, inhibitory activity of phosphorylation of YAP, read-out: LATS1_ICKA_HEK293A IC50
Procedure: Use 3× dilution scheme in DMSO through column 10, lastly diluting further by 10× into column 11. Add 100% DMSO in serum-free and complete medium in columns 1 and 12 as a positive and negative control, respectively. To achieve a dilution of 1:500, use two 0.8 ml 96-well deep-well plates (ThermoFisher AB0765) pre-filled with the medium as intermediate (1:20) and final dilution plate (1:25). (Transfer row-wise) • Flick the cell plate carefully, three to four times or until all wells are clear of any residual liquid. Dispense 50 μL of the compound in medium into respective wells row-wise, incubate at 37° C. for 30 min • After a 30-minute incubation, flick the cell plate carefully, three to four times or until all wells are clear of any residual liquid. Dilute stock Lysis Buffer #4 (4×) in deionized water, complemented with blocking solution, the stock of which is 100×*. Add 75 μL 1× lysis buffer+blocking reagent mix into each well. Mix plate on a shaker for 30 min at room temperature • Dilute stock solution of total/phospho-YAP Eu cryptate & d2 antibody (each) in the ratio of 1:20 with detection buffer. Mix antibody solutions Eu3+ cryptate and d2 (each for total-Yap and phospho-YAP) in the ratio of 1:1*. Transfer 4 μL of the antibody mixture into two separate small-volume 384-well plates assigned for total-YAP and phospho-YAP. Give a short spin to the plates in a benchtop centrifuge set at 1000 rpm for 30 seconds • Row-wise, homogenize the lysate gently by pipetting it up and down, swirling the tip in the well to help scrape off any adherent cells (avoid bubble formation). Row-wise transfer 16 μL cell lysate into the low-volume 384-well plates with 4 μL total-YAP or phospho-YAP antibody reaction mix for a final volume of 20 μL. Spin down the plates in a benchtop centrifuge set at 1000 rpm for 30 seconds • Seal the plates using a vacuum sealer, incubate overnight at room temperature in the dark on a shaker; read the next day • Use a fluorescence emission read using compatible HTRF® reader—BioTek Synergy NEO. […] Included in Cisbio HTRF YAP total kit (#64YATPEH) & YAP phospho-S127 kit (#64YAPPEH).

Row | SMILES | IC50 [µM]
47 | O=C(/N=c1\sccn1-c1ccccc1Cl)c1ccnc2[nH]ccc12 [Example 41] | 0.00475
48 | COc1ccccc1N1CCS/C1=N\C(=O)c1c[nH]c2ncccc12 [Example 5] | 1.7
49 | COc1cccc(N2CCS/C2=N\C(=O)c2c[nH]c3ncccc23)c1 [Example 9] | 1.74
50 | O=C(/N=C1\SCCN1c1ccccc1)n1ccc2ncccc21 [Example 84] | 2.29
